Reference: the supplement of paper PMC10627819

How the values were obtained:
S. pneumoniae D39V [1] = assay: Bliss interaction score (quartile over a dose matrix) (fitness difference); higher = more antagonism (negative = synergy)
How it was run: (§1)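 Values were capped at 1 after dividing OD595 at stationary-phase entry by the plate's robust no-drug mean. This ratio is fitness, and single-drug fitness was inferred from the combination data. The Bliss score is observed minus product-expected fitness, given as quartiles over technical, biological and donor/recipient replicates.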

S. aureus Newman [2] = assay: as above
How it was run: as §1

S. aureus DSM 20231 [3] = assay: as above
How it was run: as §1

B. subtilis 168 [4] = assay: as above
How it was run: as §1

S. pneumoniae D39V [5] = assay: fitness (endpoint OD595 vs no drug) (fraction); higher = more growth
How it was run: (§2)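 In 384-well plates at 37 °C, cultures began at OD595 0.01 in 30 µl, with 55 µl used for S. pneumoniae. OD595 readings every 30 min for 14 h were corrected by the first reading. Fitness divides the stationary-phase transition optical density by the robust mean of no-drug control wells. The result is capped at 1.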

S. aureus Newman [6] = assay: as above
How it was run: as §2

S. aureus DSM 20231 [7] = assay: as above
How it was run: as §2

B. subtilis 168 [8] = assay: as above
How it was run: as §2
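Throughout, for Bliss interaction score (quartile over a dose matrix): first quartile when negative (synergy) and third quartile when positive (antagonism).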

CCC[C@@H]1C[C@@H](C(=O)N[C@@H]([C@H]2O[C@H](SC)[C@H](O)[C@@H](O)[C@H]2O)[C@H](C)Cl)N(C)C1 [Clindamycin] + Cc1onc(-c2ccccc2)c1C(=O)N[C@@H]1C(=O)N2[C@@H]1SC(C)(C)[C@@H]2C(=O)O [Oxacillin]
Settings | Bliss interaction score
B. subtilis 168 [4] | 0.0308
S. aureus DSM 20231 [3] | 0.0814
S. aureus Newman [2] | 0.09
S. pneumoniae D39V [1] | 0.105

Settings | fitness
B. subtilis 168 [8], first compound 0.0625 µg/mL, partner 0.002 µg/mL | 0.546
B. subtilis 168 [8], first compound 0.0625 µg/mL, partner 0.004 µg/mL | 0.531
B. subtilis 168 [8], first compound 0.0625 µg/mL, partner 0.008 µg/mL | 0.524
B. subtilis 168 [8], first compound 0.125 µg/mL, partner 0.002 µg/mL | 0.396
B. subtilis 168 [8], first compound 0.125 µg/mL, partner 0.004 µg/mL | 0.367
B. subtilis 168 [8], first compound 0.125 µg/mL, partner 0.008 µg/mL | 0.367
B. subtilis 168 [8], first compound 0.25 µg/mL, partner 0.002 µg/mL | 0.382
B. subtilis 168 [8], first compound 0.25 µg/mL, partner 0.004 µg/mL | 0.372
B. subtilis 168 [8], first compound 0.25 µg/mL, partner 0.008 µg/mL | 0.361
S. aureus DSM 20231 [7], first compound 0.0312 µg/mL, partner 0.0312 µg/mL | 0.486
S. aureus DSM 20231 [7], first compound 0.0312 µg/mL, partner 0.0625 µg/mL | 0.355
S. aureus DSM 20231 [7], first compound 0.0625 µg/mL, partner 0.0156 µg/mL | 0.0861
S. aureus DSM 20231 [7], first compound 0.0625 µg/mL, partner 0.0312 µg/mL | 0.0909
S. aureus DSM 20231 [7], first compound 0.0625 µg/mL, partner 0.0625 µg/mL | 0.0694
S. aureus DSM 20231 [7], first compound 0.125 µg/mL, partner 0.0156 µg/mL | 0.0621
S. aureus DSM 20231 [7], first compound 0.125 µg/mL, partner 0.0312 µg/mL | 0.0625
S. aureus DSM 20231 [7], first compound 0.125 µg/mL, partner 0.0625 µg/mL | 0.0779
S. aureus Newman [6], first compound 0.0312 µg/mL, partner 0.0156 µg/mL | 0.71
S. aureus Newman [6], first compound 0.0312 µg/mL, partner 0.0312 µg/mL | 0.673
S. aureus Newman [6], first compound 0.0312 µg/mL, partner 0.0625 µg/mL | 0.557
S. aureus Newman [6], first compound 0.0625 µg/mL, partner 0.0625 µg/mL | 0.31
S. aureus Newman [6], first compound 0.125 µg/mL, partner 0.0156 µg/mL | 0.189
S. aureus Newman [6], first compound 0.125 µg/mL, partner 0.0312 µg/mL | 0.105
S. aureus Newman [6], first compound 0.125 µg/mL, partner 0.0625 µg/mL | 0.0973
S. pneumoniae D39V [5], first compound 0.0125 µg/mL, partner 0.005 µg/mL | 0.754
S. pneumoniae D39V [5], first compound 0.0125 µg/mL, partner 0.01 µg/mL | 0.786
S. pneumoniae D39V [5], first compound 0.0125 µg/mL, partner 0.02 µg/mL | 0.804
S. pneumoniae D39V [5], first compound 0.015 µg/mL, partner 0.01 µg/mL | 0.854
S. pneumoniae D39V [5], first compound 0.015 µg/mL, partner 0.02 µg/mL | 0.817
S. pneumoniae D39V [5], first compound 0.015 µg/mL, partner 0.04 µg/mL | 0.546
S. pneumoniae D39V [5], first compound 0.025 µg/mL, partner 0.005 µg/mL | 0.561
S. pneumoniae D39V [5], first compound 0.025 µg/mL, partner 0.01 µg/mL | 0.521
S. pneumoniae D39V [5], first compound 0.025 µg/mL, partner 0.02 µg/mL | 0.524
S. pneumoniae D39V [5], first compound 0.03 µg/mL, partner 0.01 µg/mL | 0.7
S. pneumoniae D39V [5], first compound 0.03 µg/mL, partner 0.02 µg/mL | 0.677
S. pneumoniae D39V [5], first compound 0.03 µg/mL, partner 0.04 µg/mL | 0.423
S. pneumoniae D39V [5], first compound 0.05 µg/mL, partner 0.005 µg/mL | 0.278
S. pneumoniae D39V [5], first compound 0.05 µg/mL, partner 0.01 µg/mL | 0.291
S. pneumoniae D39V [5], first compound 0.05 µg/mL, partner 0.02 µg/mL | 0.29

fitness, B. subtilis 168 [8], one replicate
Settings | first compound 0.0039 µg/mL | first compound 0.0078 µg/mL | first compound 0.0156 µg/mL | first compound 0.0625 µg/mL | first compound 0.125 µg/mL | first compound 0.25 µg/mL
partner 0.0078 µg/mL | 0.953 | 0.903 | 0.828 | – | – | –
partner 0.0155 µg/mL | 0.963 | 0.897 | 0.805 | – | – | –
partner 0.031 µg/mL | 0.947 | 0.865 | 0.822 | – | – | –
partner 0.075 µg/mL | – | – | – | 0.237 | 0.0774 | 0.0582
partner 0.15 µg/mL | – | – | – | 0.063 | 0.066 | 0.0705
partner 0.3 µg/mL | – | – | – | 0.0546 | 0.0304 | 0.0517

CCC[C@@H]1C[C@@H](C(=O)N[C@@H]([C@H]2O[C@H](SC)[C@H](O)[C@@H](O)[C@H]2O)[C@H](C)Cl)N(C)C1 [Clindamycin] + O=C(O[C@@H]1Cc2c(O)cc(O)cc2O[C@@H]1c1cc(O)c(O)c(O)c1)c1cc(O)c(O)c(O)c1 [EGCG]
Settings | Bliss interaction score
B. subtilis 168 [4] | 0.136
S. aureus DSM 20231 [3] | 0.0371
S. aureus Newman [2] | -0.0691
S. pneumoniae D39V [1] | -0.108

fitness
Settings | partner 6.25 µg/mL | partner 12.5 µg/mL | partner 25 µg/mL | partner 50 µg/mL
B. subtilis 168 [8], first compound 0.25 µg/mL | 0.356 | 0.337 | 0.119 | –
S. aureus DSM 20231 [7], first compound 0.0312 µg/mL | – | 0.485 | 0.49 | 0.416
S. aureus DSM 20231 [7], first compound 0.0625 µg/mL | – | – | 0.172 | 0.115
S. aureus DSM 20231 [7], first compound 0.125 µg/mL | – | 0.0823 | 0.0417 | 0.0383
S. aureus Newman [6], first compound 0.0312 µg/mL | – | 0.603 | 0.587 | 0.598
S. aureus Newman [6], first compound 0.125 µg/mL | – | – | 0.0771 | 0.046
S. pneumoniae D39V [5], first compound 0.0125 µg/mL | – | 0.703 | 0.686 | 0.605
S. pneumoniae D39V [5], first compound 0.015 µg/mL | – | 0.734 | 0.661 | 0.538
S. pneumoniae D39V [5], first compound 0.025 µg/mL | – | 0.466 | 0.405 | 0.392
S. pneumoniae D39V [5], first compound 0.03 µg/mL | – | 0.466 | 0.414 | 0.3
S. pneumoniae D39V [5], first compound 0.05 µg/mL | – | 0.173 | 0.168 | 0.178
S. pneumoniae D39V [5], first compound 0.06 µg/mL | – | 0.312 | 0.315 | 0.22

fitness, B. subtilis 168 [8], one replicate
Settings | first compound 0.0039 µg/mL | first compound 0.0078 µg/mL | first compound 0.0156 µg/mL
partner 6.25 µg/mL | 0.986 | 0.862 | 0.85
partner 12.5 µg/mL | 0.511 | 0.402 | 0.383
partner 25 µg/mL | 0.401 | 0.362 | 0.374
